Experimental data from the kinase profiling compilation of Christmann-Franck et al. (2016).

Columns and labels:
Experiment in all cases: KINOMEscan competition binding
Conditions in all cases: compound 10.0 µM
ACVRL1 (human) = ACVRL1 (human) (UniProt P37023)
PIP4K2C (human) = PIP4K2C (human) (UniProt Q8TBX8)
PRKG1 (human) = PRKG1 (human) (UniProt Q13976)
TXK (human) = TXK (human) (UniProt P42681)
MAP3K7 (human) = MAP3K7 (human) (UniProt O43318)
[1] = test system: RET (human), P07949 [V804M]
STK3 (human) = STK3 (human) (UniProt Q13188)
TYRO3 (human) = TYRO3 (human) (UniProt Q06418)
TLK1 (human) = TLK1 (human) (UniProt Q9UKI8)
CDK17 (human) = CDK17 (human) (UniProt Q00537)
CSNK1A1L (human) = CSNK1A1L (human) (UniProt Q8N752)
Sequence of CSNK1A1L (human) (Q8N752 whole entry, looked up): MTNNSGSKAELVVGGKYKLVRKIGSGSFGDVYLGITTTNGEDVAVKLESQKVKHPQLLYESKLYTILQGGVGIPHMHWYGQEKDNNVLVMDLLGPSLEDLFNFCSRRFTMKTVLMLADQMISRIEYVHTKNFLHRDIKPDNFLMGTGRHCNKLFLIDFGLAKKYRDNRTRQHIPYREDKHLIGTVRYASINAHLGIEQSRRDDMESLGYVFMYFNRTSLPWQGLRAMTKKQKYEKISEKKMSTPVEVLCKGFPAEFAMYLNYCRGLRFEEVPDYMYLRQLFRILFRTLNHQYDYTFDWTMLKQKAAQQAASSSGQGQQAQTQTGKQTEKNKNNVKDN

STK4 (human) = STK4 (human) (UniProt Q13043)
Sequence of STK4 (human) (Q13043 whole entry, looked up): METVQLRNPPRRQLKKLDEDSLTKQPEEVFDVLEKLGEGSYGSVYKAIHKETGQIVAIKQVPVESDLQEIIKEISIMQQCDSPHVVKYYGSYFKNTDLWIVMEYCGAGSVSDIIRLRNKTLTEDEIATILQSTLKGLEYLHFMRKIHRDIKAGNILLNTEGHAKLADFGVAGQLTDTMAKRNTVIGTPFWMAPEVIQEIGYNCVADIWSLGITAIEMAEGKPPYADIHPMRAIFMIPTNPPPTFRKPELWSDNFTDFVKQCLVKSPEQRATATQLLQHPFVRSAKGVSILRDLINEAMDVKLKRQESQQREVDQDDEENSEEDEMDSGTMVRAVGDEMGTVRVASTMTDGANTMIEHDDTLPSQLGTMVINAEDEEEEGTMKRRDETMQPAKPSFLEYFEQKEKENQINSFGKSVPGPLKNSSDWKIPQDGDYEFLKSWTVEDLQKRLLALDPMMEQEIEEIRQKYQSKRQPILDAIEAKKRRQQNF

FLT4 (human) = FLT4 (human) (UniProt P35916)
PIK3C2B (human) = PIK3C2B (human) (UniProt O00750)
[2] = test system: KIT (human), P10721 [L576P]
PIM3 (human) = PIM3 (human) (UniProt Q86V86)
STK24 (human) = STK24 (human) (UniProt Q9Y6E0)
TNK1 (human) = TNK1 (human) (UniProt Q13470)
TNNI3K (human) = TNNI3K (human) (UniProt Q59H18)
PDPK1 (human) = PDPK1 (human) (UniProt O15530)
PIP5K1A (human) = PIP5K1A (human) (UniProt Q99755)
CDK7 (human) = CDK7 (human) (UniProt P50613)
FGFR1 (human) = FGFR1 (human) (UniProt P11362)
RPS6KA4 KD2 (human) = RPS6KA4 KD2 (human) (UniProt O75676)
TAOK1 (human) = TAOK1 (human) (UniProt Q7L7X3)
EPHA2 (human) = EPHA2 (human) (UniProt P29317)
ERBB3 (human) = ERBB3 (human) (UniProt P21860)
NEK5 (human) = NEK5 (human) (UniProt Q6P3R8)
STK38 (human) = STK38 (human) (UniProt Q15208)
CAMK1G (human) = CAMK1G (human) (UniProt Q96NX5)
DMPK (human) = DMPK (human) (UniProt Q09013)
PRKACA (human) = PRKACA (human) (UniProt P17612)
PDGFRB (human) = PDGFRB (human) (UniProt P09619)
MARK2 (human) = MARK2 (human) (UniProt Q7KZI7)
Sequence of MARK2 (human) (Q7KZI7 whole entry, looked up): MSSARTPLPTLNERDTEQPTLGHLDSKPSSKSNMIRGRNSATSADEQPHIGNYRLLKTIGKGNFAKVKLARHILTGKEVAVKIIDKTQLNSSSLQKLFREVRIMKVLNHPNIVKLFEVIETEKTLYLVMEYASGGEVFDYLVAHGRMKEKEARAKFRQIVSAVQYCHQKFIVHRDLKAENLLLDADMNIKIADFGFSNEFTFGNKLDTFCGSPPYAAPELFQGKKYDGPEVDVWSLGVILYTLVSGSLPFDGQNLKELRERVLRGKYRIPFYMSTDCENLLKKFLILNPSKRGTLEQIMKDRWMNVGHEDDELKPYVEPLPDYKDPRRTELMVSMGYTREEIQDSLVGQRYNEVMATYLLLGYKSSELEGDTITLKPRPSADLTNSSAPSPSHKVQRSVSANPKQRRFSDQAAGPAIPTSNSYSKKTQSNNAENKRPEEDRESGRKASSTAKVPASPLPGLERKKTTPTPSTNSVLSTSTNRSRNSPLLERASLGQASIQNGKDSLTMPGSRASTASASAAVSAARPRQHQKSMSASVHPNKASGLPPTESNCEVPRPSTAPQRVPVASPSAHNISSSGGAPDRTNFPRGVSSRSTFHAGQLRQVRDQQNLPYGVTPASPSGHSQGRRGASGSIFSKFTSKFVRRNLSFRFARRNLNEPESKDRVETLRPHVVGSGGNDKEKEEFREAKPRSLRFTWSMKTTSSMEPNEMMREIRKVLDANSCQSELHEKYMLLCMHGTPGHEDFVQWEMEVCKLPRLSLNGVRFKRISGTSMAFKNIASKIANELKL

MAP3K4 (human) = MAP3K4 (human) (UniProt Q9Y6R4)
NEK6 (human) = NEK6 (human) (UniProt Q9HC98)
Sequence of NEK6 (human) (Q9HC98 whole entry, looked up): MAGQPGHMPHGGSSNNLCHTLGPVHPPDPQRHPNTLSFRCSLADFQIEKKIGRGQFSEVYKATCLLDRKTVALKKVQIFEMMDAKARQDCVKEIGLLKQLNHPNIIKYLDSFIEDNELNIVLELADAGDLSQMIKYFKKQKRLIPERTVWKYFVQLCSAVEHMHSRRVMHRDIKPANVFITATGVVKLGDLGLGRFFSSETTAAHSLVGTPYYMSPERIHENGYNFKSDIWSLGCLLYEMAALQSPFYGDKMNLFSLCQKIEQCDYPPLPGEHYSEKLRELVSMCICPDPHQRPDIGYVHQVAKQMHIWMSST

NUAK1 (human) = NUAK1 (human) (UniProt O60285)
CPK1 (P.falciparum) = test system: CPK1 (P.falciparum)
PIK3CG (human) = PIK3CG (human) (UniProt P48736)
Sequence of PIK3CG (human) (P48736 whole entry, looked up): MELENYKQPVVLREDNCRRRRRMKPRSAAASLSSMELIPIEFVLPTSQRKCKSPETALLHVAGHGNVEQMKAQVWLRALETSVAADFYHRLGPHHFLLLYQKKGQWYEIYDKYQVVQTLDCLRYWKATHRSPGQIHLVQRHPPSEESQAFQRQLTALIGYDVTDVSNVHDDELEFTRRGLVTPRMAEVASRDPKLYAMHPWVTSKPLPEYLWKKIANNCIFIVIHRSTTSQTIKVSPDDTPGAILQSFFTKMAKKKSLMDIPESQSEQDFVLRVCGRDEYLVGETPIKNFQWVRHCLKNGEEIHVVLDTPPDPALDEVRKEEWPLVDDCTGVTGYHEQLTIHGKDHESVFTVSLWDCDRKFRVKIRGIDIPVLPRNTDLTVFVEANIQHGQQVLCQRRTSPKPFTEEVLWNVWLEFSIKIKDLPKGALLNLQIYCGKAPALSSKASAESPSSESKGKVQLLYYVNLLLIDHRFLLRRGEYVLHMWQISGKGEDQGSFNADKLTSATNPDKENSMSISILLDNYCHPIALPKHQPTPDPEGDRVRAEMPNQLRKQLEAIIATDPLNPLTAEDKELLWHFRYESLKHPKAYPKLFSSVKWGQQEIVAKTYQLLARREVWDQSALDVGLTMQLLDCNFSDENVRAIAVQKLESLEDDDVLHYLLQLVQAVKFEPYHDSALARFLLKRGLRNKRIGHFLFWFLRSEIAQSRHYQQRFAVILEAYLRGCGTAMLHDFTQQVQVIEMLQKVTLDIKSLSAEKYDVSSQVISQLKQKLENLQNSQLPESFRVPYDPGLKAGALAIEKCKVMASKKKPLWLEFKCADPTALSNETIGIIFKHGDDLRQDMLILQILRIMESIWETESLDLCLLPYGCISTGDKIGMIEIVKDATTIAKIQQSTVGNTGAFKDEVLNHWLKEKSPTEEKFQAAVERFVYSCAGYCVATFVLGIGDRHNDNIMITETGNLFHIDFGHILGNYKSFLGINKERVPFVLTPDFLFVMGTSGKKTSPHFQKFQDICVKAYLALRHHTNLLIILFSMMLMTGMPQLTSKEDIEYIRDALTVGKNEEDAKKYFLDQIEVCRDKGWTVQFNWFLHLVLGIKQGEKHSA

[3] = test system: FLT3 (human), P36888 [D835H]

Sequence of MAP3K7 (human) (O43318 whole entry, looked up): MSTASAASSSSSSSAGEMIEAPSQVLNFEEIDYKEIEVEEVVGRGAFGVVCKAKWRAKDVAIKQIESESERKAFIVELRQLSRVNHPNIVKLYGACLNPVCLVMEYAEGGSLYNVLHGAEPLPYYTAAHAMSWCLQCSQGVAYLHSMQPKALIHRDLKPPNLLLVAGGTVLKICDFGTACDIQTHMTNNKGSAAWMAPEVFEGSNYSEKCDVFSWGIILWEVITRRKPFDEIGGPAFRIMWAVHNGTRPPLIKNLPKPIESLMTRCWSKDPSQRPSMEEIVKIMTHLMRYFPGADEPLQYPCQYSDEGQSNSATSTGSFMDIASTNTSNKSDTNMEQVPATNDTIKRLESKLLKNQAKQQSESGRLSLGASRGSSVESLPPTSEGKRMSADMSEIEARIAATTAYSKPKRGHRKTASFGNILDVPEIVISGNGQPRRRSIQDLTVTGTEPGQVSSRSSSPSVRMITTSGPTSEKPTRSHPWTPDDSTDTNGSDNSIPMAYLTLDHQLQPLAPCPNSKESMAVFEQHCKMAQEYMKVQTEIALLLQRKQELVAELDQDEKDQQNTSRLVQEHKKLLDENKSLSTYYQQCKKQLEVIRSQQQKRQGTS
Sequence of PRKG1 (human) (Q13976 whole entry, looked up): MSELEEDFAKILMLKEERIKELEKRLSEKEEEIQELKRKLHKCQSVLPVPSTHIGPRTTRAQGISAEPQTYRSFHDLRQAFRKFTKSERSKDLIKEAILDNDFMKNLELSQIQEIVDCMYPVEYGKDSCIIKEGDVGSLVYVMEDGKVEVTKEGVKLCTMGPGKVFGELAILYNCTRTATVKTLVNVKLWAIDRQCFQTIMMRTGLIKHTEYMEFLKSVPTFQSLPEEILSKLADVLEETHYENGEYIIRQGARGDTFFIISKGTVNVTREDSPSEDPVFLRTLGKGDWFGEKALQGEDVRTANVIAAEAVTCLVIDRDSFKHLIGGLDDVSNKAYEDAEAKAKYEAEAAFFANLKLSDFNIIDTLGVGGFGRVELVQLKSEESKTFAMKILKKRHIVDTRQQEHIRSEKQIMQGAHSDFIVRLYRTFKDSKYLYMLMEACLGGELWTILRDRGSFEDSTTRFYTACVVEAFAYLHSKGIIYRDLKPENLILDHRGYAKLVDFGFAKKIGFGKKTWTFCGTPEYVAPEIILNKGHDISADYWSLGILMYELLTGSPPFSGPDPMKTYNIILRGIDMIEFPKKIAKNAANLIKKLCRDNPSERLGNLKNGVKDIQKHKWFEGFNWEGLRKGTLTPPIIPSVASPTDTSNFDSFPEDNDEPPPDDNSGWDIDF
Sequence of TXK (human) (P42681 whole entry, looked up): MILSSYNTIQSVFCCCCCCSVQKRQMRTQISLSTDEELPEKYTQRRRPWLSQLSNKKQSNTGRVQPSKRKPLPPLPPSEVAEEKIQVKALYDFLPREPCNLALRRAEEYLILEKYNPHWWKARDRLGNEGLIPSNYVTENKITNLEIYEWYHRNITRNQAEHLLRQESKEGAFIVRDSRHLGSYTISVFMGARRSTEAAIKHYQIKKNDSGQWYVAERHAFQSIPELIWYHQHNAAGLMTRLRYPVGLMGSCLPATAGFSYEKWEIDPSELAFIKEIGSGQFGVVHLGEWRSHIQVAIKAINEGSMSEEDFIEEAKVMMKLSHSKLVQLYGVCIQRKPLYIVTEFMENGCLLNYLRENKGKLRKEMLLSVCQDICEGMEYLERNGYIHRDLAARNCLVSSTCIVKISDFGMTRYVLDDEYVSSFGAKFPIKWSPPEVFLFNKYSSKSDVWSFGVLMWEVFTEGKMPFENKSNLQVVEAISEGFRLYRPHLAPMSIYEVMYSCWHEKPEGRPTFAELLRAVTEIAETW

CNC(=O)c1cc(Oc2ccc(NC(=O)Nc3ccc(Cl)c(C(F)(F)F)c3)cc2)ccn1 was tested, and the kinase still bound, per cent of control (ACVRL1 (human)) was 77%, the kinase still bound, per cent of control (PIP4K2C (human)) was 100% and the kinase still bound, per cent of control (PRKG1 (human)) was 95%. The kinase still bound, per cent of control (TXK (human)) was 77%, the kinase still bound, per cent of control (MAP3K7 (human)) was 6.2% and the kinase still bound, per cent of control [1] was 0%. The kinase still bound, per cent of control (STK3 (human)) was 85%, the kinase still bound, per cent of control (TYRO3 (human)) was 80% and the kinase still bound, per cent of control (TLK1 (human)) was 100%. The kinase still bound, per cent of control (CDK17 (human)) was 17%, the kinase still bound, per cent of control (CSNK1A1L (human)) was 98% and the kinase still bound, per cent of control (STK4 (human)) was 81%. The kinase still bound, per cent of control (FLT4 (human)) was 0%, the kinase still bound, per cent of control (PIK3C2B (human)) was 92% and the kinase still bound, per cent of control [2] was 0%. For the same molecule, the kinase still bound, per cent of control (PIM3 (human)) was 80%, the kinase still bound, per cent of control (STK24 (human)) was 97% and the kinase still bound, per cent of control (TNK1 (human)) was 37%. It also gave a kinase still bound, per cent of control (TNNI3K (human)) of 19%, a kinase still bound, per cent of control (PDPK1 (human)) of 76% and a kinase still bound, per cent of control (PIP5K1A (human)) of 100%. It also gave a kinase still bound, per cent of control (CDK7 (human)) of 4.2%, a kinase still bound, per cent of control (FGFR1 (human)) of 5.2% and a kinase still bound, per cent of control (RPS6KA4 KD2 (human)) of 89%. It also gave a kinase still bound, per cent of control (TAOK1 (human)) of 23%, a kinase still bound, per cent of control (EPHA2 (human)) of 18% and a kinase still bound, per cent of control (ERBB3 (human)) of 100%. For the same molecule, the kinase still bound, per cent of control (NEK5 (human)) was 90%, the kinase still bound, per cent of control (STK38 (human)) was 85% and the kinase still bound, per cent of control (CAMK1G (human)) was 99%. For the same molecule, the kinase still bound, per cent of control (DMPK (human)) was 100%, the kinase still bound, per cent of control (PRKACA (human)) was 63% and the kinase still bound, per cent of control (PDGFRB (human)) was 0%. The kinase still bound, per cent of control (MARK2 (human)) was 98%, the kinase still bound, per cent of control (MAP3K4 (human)) was 98% and the kinase still bound, per cent of control (NEK6 (human)) was 100%. For the same molecule, the kinase still bound, per cent of control (NUAK1 (human)) was 84% and the kinase still bound, per cent of control (CPK1 (P.falciparum)) was 0.95%.

COCC(=O)NC/C=C/c1ccc2ncnc(Nc3ccc(Oc4ccc(C)nc4)c(C)c3)c2c1 was tested, and the kinase still bound, per cent of control (ACVRL1 (human)) was 84%, the kinase still bound, per cent of control (PIP4K2C (human)) was 84% and the kinase still bound, per cent of control (PRKG1 (human)) was 100%. It also gave a kinase still bound, per cent of control (TXK (human)) of 84%, a kinase still bound, per cent of control (PIK3CG (human)) of 100% and a kinase still bound, per cent of control (MAP3K7 (human)) of 100%. The kinase still bound, per cent of control (STK3 (human)) was 82%, the kinase still bound, per cent of control (TYRO3 (human)) was 80% and the kinase still bound, per cent of control (TLK1 (human)) was 79%. It also gave a kinase still bound, per cent of control (CDK17 (human)) of 100%, a kinase still bound, per cent of control (CSNK1A1L (human)) of 82% and a kinase still bound, per cent of control (STK4 (human)) of 87%. The kinase still bound, per cent of control (FLT4 (human)) was 98%, the kinase still bound, per cent of control (PIK3C2B (human)) was 88% and the kinase still bound, per cent of control [2] was 54%. It also gave a kinase still bound, per cent of control (PIM3 (human)) of 100%, a kinase still bound, per cent of control (STK24 (human)) of 90% and a kinase still bound, per cent of control (TNK1 (human)) of 86%. The kinase still bound, per cent of control (TNNI3K (human)) was 100%, the kinase still bound, per cent of control (PDPK1 (human)) was 100% and the kinase still bound, per cent of control (PIP5K1A (human)) was 88%. It also gave a kinase still bound, per cent of control (CDK7 (human)) of 100%, a kinase still bound, per cent of control (FGFR1 (human)) of 100% and a kinase still bound, per cent of control (RPS6KA4 KD2 (human)) of 100%. The kinase still bound, per cent of control (TAOK1 (human)) was 94%, the kinase still bound, per cent of control (EPHA2 (human)) was 100% and the kinase still bound, per cent of control (ERBB3 (human)) was 20%. For the same molecule, the kinase still bound, per cent of control (NEK5 (human)) was 100%, the kinase still bound, per cent of control (STK38 (human)) was 73% and the kinase still bound, per cent of control (CAMK1G (human)) was 96%. For the same molecule, the kinase still bound, per cent of control (PRKACA (human)) was 100%, the kinase still bound, per cent of control (PDGFRB (human)) was 46% and the kinase still bound, per cent of control (MAP3K4 (human)) was 97%. The kinase still bound, per cent of control (NEK6 (human)) was 100%, the kinase still bound, per cent of control (NUAK1 (human)) was 100% and the kinase still bound, per cent of control (CPK1 (P.falciparum)) was 25%.

COc1cc2ncn(-c3cc(OCc4ccccc4C(F)(F)F)c(C(N)=O)s3)c2cc1OC showed a kinase still bound, per cent of control (ACVRL1 (human)) of 100%, a kinase still bound, per cent of control (PIP4K2C (human)) of 26% and a kinase still bound, per cent of control (PRKG1 (human)) of 100%. The kinase still bound, per cent of control (TXK (human)) was 72%, the kinase still bound, per cent of control (PIK3CG (human)) was 18% and the kinase still bound, per cent of control (MAP3K7 (human)) was 66%. It also gave a kinase still bound, per cent of control [1] of 62%, a kinase still bound, per cent of control (STK3 (human)) of 1.8% and a kinase still bound, per cent of control (TYRO3 (human)) of 72%. It also gave a kinase still bound, per cent of control (TLK1 (human)) of 96%, a kinase still bound, per cent of control (CDK17 (human)) of 100% and a kinase still bound, per cent of control (CSNK1A1L (human)) of 78%. It also gave a kinase still bound, per cent of control (STK4 (human)) of 56%, a kinase still bound, per cent of control (FLT4 (human)) of 1.4% and a kinase still bound, per cent of control (PIK3C2B (human)) of 63%. For the same molecule, the kinase still bound, per cent of control [2] was 30%, the kinase still bound, per cent of control (PIM3 (human)) was 63% and the kinase still bound, per cent of control (STK24 (human)) was 87%. It also gave a kinase still bound, per cent of control (TNK1 (human)) of 36%, a kinase still bound, per cent of control (TNNI3K (human)) of 81% and a kinase still bound, per cent of control (PDPK1 (human)) of 66%. For the same molecule, the kinase still bound, per cent of control (PIP5K1A (human)) was 3.4%, the kinase still bound, per cent of control (FGFR1 (human)) was 43% and the kinase still bound, per cent of control (RPS6KA4 KD2 (human)) was 70%. It also gave a kinase still bound, per cent of control (TAOK1 (human)) of 47%, a kinase still bound, per cent of control (EPHA2 (human)) of 44% and a kinase still bound, per cent of control (ERBB3 (human)) of 100%. It also gave a kinase still bound, per cent of control (NEK5 (human)) of 36%, a kinase still bound, per cent of control (STK38 (human)) of 94% and a kinase still bound, per cent of control (CAMK1G (human)) of 72%. For the same molecule, the kinase still bound, per cent of control (DMPK (human)) was 98%, the kinase still bound, per cent of control (PRKACA (human)) was 100% and the kinase still bound, per cent of control (PDGFRB (human)) was 5.3%. It also gave a kinase still bound, per cent of control (MARK2 (human)) of 50%, a kinase still bound, per cent of control (MAP3K4 (human)) of 90% and a kinase still bound, per cent of control (NEK6 (human)) of 87%. It also gave a kinase still bound, per cent of control (NUAK1 (human)) of 21% and a kinase still bound, per cent of control (CPK1 (P.falciparum)) of 75%.

Molecule NC(=O)Nc1cc(-c2cccc(F)c2)sc1C(=O)N[C@@H]1CCCNC1 has a kinase still bound, per cent of control (ACVRL1 (human)) of 76%, a kinase still bound, per cent of control (PIP4K2C (human)) of 87% and a kinase still bound, per cent of control (PRKG1 (human)) of 0.8%. For the same molecule, the kinase still bound, per cent of control (TXK (human)) was 0.1%, the kinase still bound, per cent of control (PIK3CG (human)) was 100% and the kinase still bound, per cent of control (MAP3K7 (human)) was 0%. For the same molecule, the kinase still bound, per cent of control [1] was 0%, the kinase still bound, per cent of control (TYRO3 (human)) was 3.2% and the kinase still bound, per cent of control (TLK1 (human)) was 0.9%. The kinase still bound, per cent of control (CDK17 (human)) was 84%, the kinase still bound, per cent of control (CSNK1A1L (human)) was 2.4% and the kinase still bound, per cent of control (STK4 (human)) was 0.4%. For the same molecule, the kinase still bound, per cent of control (FLT4 (human)) was 0%, the kinase still bound, per cent of control (PIK3C2B (human)) was 16% and the kinase still bound, per cent of control (PIM3 (human)) was 15%. It also gave a kinase still bound, per cent of control (STK24 (human)) of 0.3%, a kinase still bound, per cent of control (TNK1 (human)) of 1.4% and a kinase still bound, per cent of control (TNNI3K (human)) of 7.3%. The kinase still bound, per cent of control [3] was 0%, the kinase still bound, per cent of control (PDPK1 (human)) was 0.7% and the kinase still bound, per cent of control (PIP5K1A (human)) was 0%. For the same molecule, the kinase still bound, per cent of control (CDK7 (human)) was 4.9%, the kinase still bound, per cent of control (FGFR1 (human)) was 1.3% and the kinase still bound, per cent of control (RPS6KA4 KD2 (human)) was 0.35%. For the same molecule, the kinase still bound, per cent of control (TAOK1 (human)) was 4.8%, the kinase still bound, per cent of control (EPHA2 (human)) was 7.4% and the kinase still bound, per cent of control (ERBB3 (human)) was 28%. For the same molecule, the kinase still bound, per cent of control (NEK5 (human)) was 90%, the kinase still bound, per cent of control (STK38 (human)) was 4% and the kinase still bound, per cent of control (CAMK1G (human)) was 6.2%. For the same molecule, the kinase still bound, per cent of control (DMPK (human)) was 12%, the kinase still bound, per cent of control (PRKACA (human)) was 1.4% and the kinase still bound, per cent of control (PDGFRB (human)) was 0%. The kinase still bound, per cent of control (MARK2 (human)) was 0.9%, the kinase still bound, per cent of control (MAP3K4 (human)) was 42% and the kinase still bound, per cent of control (NEK6 (human)) was 89%. The kinase still bound, per cent of control (NUAK1 (human)) was 0% and the kinase still bound, per cent of control (CPK1 (P.falciparum)) was 0.1%.
